Assay results from PubChem BioAssay AID330 (DTP/NCI, 2004).
Where “and” joins values, the source holds several entries; their conditions need not be identical. Identical values can stand only once. Inconclusive results and toxic doses are left out. How the source made its calls: active means survival T/C of 150% or more; inactive means T/C below 125% in these data.

Tested on: P388 leukemia ip, CD2F1 mice, survival T/C
Experiment: NCI In Vivo Anticancer Drug Screen. Data for tumor model P388 Leukemia (intraperitoneal) in CD2F1 (CDF1) mice
Conditions: endpoint: median survival time, higher = longer survival
How it was run: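 Mice carrying the transplanted tumor received test compound or vehicle. Survival was recorded in each group, and the value is the treated-group measurement divided by that of the vehicle-treated control group.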

[1] = dose: 12.5 mg/kg/injection, schedule: Q01DX009 (ip), vehicle: Klucel (hydroxypropylcellulose) (HPC)
[2] = dose: 25.0 mg/kg/injection, schedule: Q01DX009 (ip), vehicle: Klucel (hydroxypropylcellulose) (HPC)
[3] = dose: 50.0 mg/kg/injection, schedule: Q01DX009 (ip), vehicle: Klucel (hydroxypropylcellulose) (HPC)
[4] = dose: 50.0 mg/kg/injection, schedule: Q01DX009 (ip), vehicle: saline with Tween-80
[5] = dose: 100.0 mg/kg/injection, schedule: Q01DX009 (ip), vehicle: saline with Tween-80
[6] = dose: 200.0 mg/kg/injection, schedule: Q01DX009 (ip), vehicle: saline with Tween-80
[7] = dose: 25.0 mg/kg/injection, schedule: Q01DX005 (ip), vehicle: saline with Tween-80
[8] = dose: 50.0 mg/kg/injection, schedule: Q01DX005 (ip), vehicle: saline with Tween-80
[9] = dose: 100.0 mg/kg/injection, schedule: Q01DX005 (ip), vehicle: saline with Tween-80
[10] = dose: 100.0 mg/kg/injection, schedule: Q01DX001 (ip), vehicle: saline with Tween-80
[11] = dose: 50.0 mg/kg/injection, schedule: Q01DX005 (ip), vehicle: Klucel (hydroxypropylcellulose) (HPC)
[12] = dose: 100.0 mg/kg/injection, schedule: Q01DX005 (ip), vehicle: Klucel (hydroxypropylcellulose) (HPC)
[13] = dose: 12.5 mg/kg/injection, schedule: Q01DX005 (ip), vehicle: Klucel (hydroxypropylcellulose) (HPC)
[14] = dose: 25.0 mg/kg/injection, schedule: Q01DX005 (ip), vehicle: Klucel (hydroxypropylcellulose) (HPC)
[15] = dose: 25.0 mg/kg/injection, schedule: Q01DX009 (ip), vehicle: other
[16] = dose: 50.0 mg/kg/injection, schedule: Q01DX009 (ip), vehicle: other
[17] = dose: 100.0 mg/kg/injection, schedule: Q01DX009 (ip), vehicle: other

Measured: T/C

Nc1nc(-c2ccccc2N=NN2CCCCC2)nc2ccccc12
inactive: [1] 111 % of control | [2] 102 % of control | [3] 104 % of control | dose: 100.0 mg/kg/injection, schedule: Q01DX009 (ip), vehicle: Klucel (hydroxypropylcellulose) (HPC) 110 % of control and 113 % of control

CCCOC(=O)c1ccccc1C(=O)O
inactive: [4] 105 % of control | [5] 104 % of control | [6] 101 % of control

O=C1C=CC(=O)N1C(=O)NCNC(=O)N1C(=O)C=CC1=O
inactive: [7] 99 % of control and 107 % of control | [8] 103 % of control (2×) and 106 % of control | [9] 103 % of control and 121 % of control

CC[P+](CC)(c1ccccc1)c1ccccc1
inactive: dose: 3.12 mg/kg/injection, schedule: Q01DX005 (ip), vehicle: saline 94 % of control | dose: 6.25 mg/kg/injection, schedule: Q01DX005 (ip), vehicle: saline 95 % of control | dose: 12.5 mg/kg/injection, schedule: Q01DX005 (ip), vehicle: saline 100 % of control

S=C(Cl)N1CCN(C(=S)Cl)CC1
inactive: [1] 104 % of control | [2] 112 % of control | [3] 110 % of control and 93 % of control

C=C1C2CCC3(CCC4C5(C)CCCC4(C=[N+](CCO)C5)C3C2)C1O (stereo not given)
inactive: [2] 94 % of control

CC(C)=CCC/C(C)=C/COc1ccc(/C=C2/C(=O)N(O)[C@@H](C)C(=O)N2O)cc1
inactive: dose: 6.25 mg/kg/injection, schedule: Q01DX009 (ip), vehicle: saline 123 % of control and 97 % of control | dose: 12.5 mg/kg/injection, schedule: Q01DX009 (ip), vehicle: saline 99 % of control | dose: 25.0 mg/kg/injection, schedule: Q01DX009 (ip), vehicle: saline 108 % of control

CCCCNC(=S)NNC(=O)CNC(c1ccc(OC)cc1)C(CC)c1ccc(OC)cc1 (stereo not given)
inactive: [10] 88 % of control | dose: 200.0 mg/kg/injection, schedule: Q01DX001 (ip), vehicle: saline with Tween-80 101 % of control

CC(=O)NC(CSC(c1ccccc1)c1ccccc1)C(C)=O (stereo not given)
inactive: dose: 100.0 mg/kg/injection, schedule: Q04DX003 (ip), vehicle: saline with Tween-80 103 % of control | dose: 200.0 mg/kg/injection, schedule: Q04DX003 (ip), vehicle: saline with Tween-80 106 % of control | dose: 400.0 mg/kg/injection, schedule: Q04DX003 (ip), vehicle: saline with Tween-80 113 % of control

O=C(COc1cccc2oc3ccccc3c(=O)c12)N/N=C/c1ccc(N(CCCl)CCCl)cc1
inactive: dose: 60.0 mg/kg/injection, schedule: Q01DX005 (ip), vehicle: Klucel (hydroxypropylcellulose) (HPC) 97 % of control | dose: 120.0 mg/kg/injection, schedule: Q01DX005 (ip), vehicle: Klucel (hydroxypropylcellulose) (HPC) 96 % of control | dose: 240.0 mg/kg/injection, schedule: Q01DX005 (ip), vehicle: Klucel (hydroxypropylcellulose) (HPC) 95 % of control

COC1=CC(=O)C(C2(OC(C)C)OC(=O)C(Cl)=C2Cl)=CC1=O (stereo not given)
inactive: [8] 119 % of control | [9] 111 % of control

Cc1cc([N+](=O)[O-])ccc1N=Nc1ccc(O)c(C(=O)O)c1
inactive: [8] 105 % of control | [9] 95 % of control

O=c1oc2c(ccc3c(O)cccc32)c2c1CCCC2
inactive: [11] 105 % of control | [12] 102 % of control | dose: 200.0 mg/kg/injection, schedule: Q01DX005 (ip), vehicle: Klucel (hydroxypropylcellulose) (HPC) 93 % of control

CCC(=O)/C=C/c1ccc(N(C)C)cc1
inactive: dose: 100.0 mg/kg/injection, schedule: Q04DX003 (ip), vehicle: Klucel (hydroxypropylcellulose) (HPC) 93 % of control | dose: 200.0 mg/kg/injection, schedule: Q04DX003 (ip), vehicle: Klucel (hydroxypropylcellulose) (HPC) 89 % of control

CCN(CC)CCOC(=O)Cc1ccc2c(=O)cc(-c3ccc(C)cc3)oc2c1
inactive: [13] 109 % of control | [14] 108 % of control | [11] 103 % of control and 114 % of control | [12] 121 % of control

Nc1ccc(C2C(=[N+]([O-])[O-])C=C([N+](=O)[O-])c3[nH]o[n+](=O)c32)cc1 (stereo not given)
inactive: dose: 50.0 mg/kg/injection, schedule: Q01DX001 (ip), vehicle: saline with Tween-80 100 % of control | [10] 100 % of control

CC1CCC(C(C)C)/C(=N/NC(=O)c2cccnc2)C1 (stereo not given)
inactive: [13] 100 % of control | [14] 104 % of control | [11] 100 % of control

OC1C2CCC(C2)C1CN1CCOCC1 (stereo not given)
inactive: [7] 99 % of control | [8] 99 % of control | [9] 99 % of control | dose: 200.0 mg/kg/injection, schedule: Q01DX005 (ip), vehicle: saline with Tween-80 96 % of control

COC1CC(=O)C2OC(c3ccccc3)OCC2O1 (stereo not given)
inactive: dose: 1.56 mg/kg/injection, schedule: Q01DX009 (ip), vehicle: other 88 % of control | dose: 3.13 mg/kg/injection, schedule: Q01DX009 (ip), vehicle: other 94 % of control | dose: 6.25 mg/kg/injection, schedule: Q01DX009 (ip), vehicle: other 106 % of control | dose: 12.5 mg/kg/injection, schedule: Q01DX009 (ip), vehicle: other 96 % of control | [15] 100 % of control and 97 % of control | [16] 99 % of control | [17] 92 % of control | dose: 200.0 mg/kg/injection, schedule: Q01DX009 (ip), vehicle: other 87 % of control | dose: 400.0 mg/kg/injection, schedule: Q01DX009 (ip), vehicle: other 98 % of control

COc1cccc2c1C(=O)c1c(O)c3c(c(O)c1C2=O)C[C@@](O)(C(=O)CO)C[C@@H]3OC1CC(NC(=O)CN)C(O)C(C)O1 (stereo not given in full)
inactive: [15] 93 % of control | [16] 94 % of control | [17] 96 % of control

C(C#Cc1ccccc1)#Cc1ccccc1
inactive: dose: 25.0 mg/kg/injection, schedule: Q01DX009 (ip), vehicle: saline with Tween-80 98 % of control | [4] 99 % of control | [5] 96 % of control | [6] 98 % of control

CC(=O)O[C@H]1[C@@H](OC(C)=O)[C@]2(C)[C@H](CC[C@@]3(C)[C@H](c4ccoc4)C[C@H]4O[C@@]423)[C@@]2(C)C=CC(=O)OC(C)(C)[C@H]12
inactive: dose: 1.25 mg/kg/injection, schedule: Q04DX003 (ip), vehicle: Klucel (hydroxypropylcellulose) (HPC) 94 % of control | dose: 2.5 mg/kg/injection, schedule: Q04DX003 (ip), vehicle: Klucel (hydroxypropylcellulose) (HPC) 88 % of control | dose: 5.0 mg/kg/injection, schedule: Q04DX003 (ip), vehicle: Klucel (hydroxypropylcellulose) (HPC) 93 % of control | dose: 10.0 mg/kg/injection, schedule: Q04DX003 (ip), vehicle: Klucel (hydroxypropylcellulose) (HPC) 88 % of control

CCOC(=O)c1ccc(N(C)Cc2cnc(N)c(C#N)n2)cc1
inactive: dose: 15.0 mg/kg/injection, schedule: Q01DX009 (ip), vehicle: saline with Tween-80 114 % of control | dose: 30.0 mg/kg/injection, schedule: Q01DX009 (ip), vehicle: saline with Tween-80 115 % of control | dose: 60.0 mg/kg/injection, schedule: Q01DX009 (ip), vehicle: saline with Tween-80 89 % of control

N[C@H](C(=O)O)[C@@H]1CC(S(=O)(=O)c2ccccc2)=NO1
inactive: dose: 12.5 mg/kg/injection, schedule: Q01DX005 (ip), vehicle: distilled water + Tween-80 102 % of control | dose: 25.0 mg/kg/injection, schedule: Q01DX005 (ip), vehicle: distilled water + Tween-80 102 % of control
